Measurements: patent US9050334B2, “MIF inhibitors and their uses” (INNOV88 LLC, priority 2010, dated 2015)

How the values were obtained:
[1] = molecular target: T1, Native human MIF (Homo sapiens, UniProt P14174); experiment: MIF tautomerase activity assay with hydroxyphenyl pyruvic acid (HPP) substrate; format: biochemical; details: absorbance at 300 nm
T1 sequence (P14174 2-115 limits assumed): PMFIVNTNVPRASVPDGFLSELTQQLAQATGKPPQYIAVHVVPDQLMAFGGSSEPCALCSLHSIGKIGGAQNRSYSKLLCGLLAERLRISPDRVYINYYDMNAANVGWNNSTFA
Protocol: The ability of candidate compounds to inhibit this tautomerase activity are quantitated by using hydroxyphenyl pyruvic acid (HPP) as a substrate (Ouertatani-Sakouhi et al., 2010). The ability of compounds to inhibit the tautomerase activity can be quantitated by following the increase in absorbance due to the enzymatic formation of the HPP enol-borate complex at 300 nm in the absence and presence of a test compound. The IC50 value of compounds are determined by plotting the initial velocities determined at 300 nm as a function of a test compound's concentration. Assays are carried out in a 96 or 384 well plate format. Representative MIF inhibitors were tested in the assay described above and the results tabulated in Table 1 wherein “A” represents≦10 μM; “B” represents>10 μM and <100 μM; “C” represents>100 μM and ≦200 μM; and “D” represents>200 μM.

[2] = test system: LPS-stimulated PBMCs; experiment: TNF-α production in LPS-stimulated PBMCs; format: cell-based; details: PBMC; human PBMCs, 25 μM compound preincubated 1 hour, LPS stimulation, 24 hours
Protocol: (§1) Effect of Candidate Compounds on Cytokine Production from Human Cells: Mono-Mac-6 Cells: The cellular efficacy of the inhibitors is determined using the human monocytic cell line, Mono-Mac-6 cells (MM6 cells) as it has been shown that MIF induces the production of inflammatory mediators, including tumor necrosis factor-α (TNF-α) interleukin (IL)-1β, IL-6, IL-8, interferon-γ (IFN-γ) and prostaglandin E2 (PGE2) in these cells (Schwartz et al., 2009). Recombinant human MIF (rhMIF) will be purchased from R&D Systems (Minneapolis, Minn.) or generated in house. To induce the production of inflammatory mediators, MM6 cells will be plated at a final concentration of 5×10^5 cells/ml in RPMI 1640 medium containing 1% heat-inactivated low-pyrogen fetal bovine serum, 2 mM GlutaMAX-1,1% non-essential amino acids, 1% sodium pyruvate, 100 units/ml penicillin G and 100 μg/ml streptomycin (Gibco BRL Life Technologies). Cells will be stimulated with 100 ng/ml rhMIF with or without inhibitor for 20 h at 37° C. with 5% CO2. The supernatants were stored at −20° C. until they were assayed. The levels of inflammatory mediators will be determined using commercial ELISA kits from R&D Systems (Minneapolis, Minn.). Human Periperal Blood Mononuclear Cells (PBMC): Human whole blood is collected from healthy donors in sodium-heparinized tubes (BD Biosciences), and peripheral blood mononucleated cells (PBMC) are isolated by Ficoll separation. Cells are washed in Dulbecco's phosphate-buffered saline, resuspended in media (DMEM) containing 5% low endotoxin (<0.3 EU/ml) fetal Bovine Serum (FBS, GIBCO) and 10 units/ml penicillin/streptomycin, and plated at 5×10^5 cells/well in 96-well tissue culture plates. Lipopolysaccharide (LPS, E. coli Serotype 0111:B4, Sigma) or macrophage migration inhibitory factor are pre-incubated for 15 minutes with compounds dissolved in dimethyl sulfoxide (DMSO). The mixtures are then added to cells to yield final concentrations of 1% DMSO, 100 ng/ml LPS and 1 μg/ml MIF. Cells are incubated for overnight at 37° C., 5% CO2. TNF-α production is measured by ELISA (R&D Systems). Cytotoxicity is assessed using the MTT [3-(4,5-dimethylthiazol-2-yl)-2,5-diphenyl tetrazolium bromide assay. Human Rheumatoid Arthritis Synovial Fibroblast (RASF) Cell Line: RASF cells are derived from the inflamed synovium of a RA patient who was undergoing total knee replacement. Cells are cultured in Dulbecco's modified Eagle's medium with 15% FBS, 1% glutamine, and 1% penicillin/streptamycin (all from Gibco (Invitrogen), Gaithersburg, Md.). Experiments are performed with cells between passages 7 to 10, using trypsin with 0.25% ethylene diamine tetraacetic acid (EDTA)(Gibco) to detach cells. Interleukin 1 or macrophage migration inhibitory factor (MIF, GIBCO) are pre-incubated for 15 minutes with compounds dissolved in dimethyl sulfoxide (DMSO). The mixtures are then added to cells to yield final concentrations of 1% DMSO, 1 ng/ml Interleukin 1 or 1 μg/ml MIF. RASFs are incubated with or without stimuli at 37° C. for 20 h for induction of Interelukin 6. Interleukin 6 levels in culture supernatants are quantitated by ELISA. Representative MIF inhibitors were tested in the assay described above, specifically, human peripheral blood mononuclear cells [PBMCs] were isolated and stimulated with either LPS or rhMIF.

[3] = test system: rhMIF-stimulated PBMCs; experiment: TNF-α production in rhMIF-stimulated PBMCs; format: cell-based; details: PBMC; human PBMCs, 25 μM compound preincubated 1 hour, rhMIF stimulation, 24 hours
Protocol: as §1, with “Interleukin 1 or macrophage migration inhibitory factor (MIF, GIBCO) are pre-incubated for 15 minutes with compounds dissolved in dimethyl sulfoxide (DMSO). The mixtures are then added to cells to yield final concentrations of 1% DMSO, 1 ng/ml Interleukin 1 or 1 μg/ml MIF. RASFs are incubated with or without stimuli at 37° C. for 20 h for induction of Interelukin 6.” left out, “Representative MIF inhibitors were tested in the assay described above, specifically, human peripheral blood mononuclear cells [PBMCs] were isolated and stimulated with either LPS or rhMIF.” left out

[4] = test system: rhMIF-stimulated PBMCs; experiment: IL-6 production in rhMIF-stimulated PBMCs; format: cell-based; details: PBMC; human PBMCs, 25 μM compound preincubated 1 hour, rhMIF stimulation, 24 hours
Protocol: Effect of Candidate Compounds on Cytokine Production from Human Cells: Mono-Mac-6 Cells: The cellular efficacy of the inhibitors is determined using the human monocytic cell line, Mono-Mac-6 cells (MM6 cells) as it has been shown that MIF induces the production of inflammatory mediators, including tumor necrosis factor-α (TNF-α) interleukin (IL)-1β, IL-6, IL-8, interferon-γ (IFN-γ) and prostaglandin E2 (PGE2) in these cells (Schwartz et al., 2009). Recombinant human MIF (rhMIF) will be purchased from R&D Systems (Minneapolis, Minn.) or generated in house. To induce the production of inflammatory mediators, MM6 cells will be plated at a final concentration of 5×10^5 cells/ml in RPMI 1640 medium containing 1% heat-inactivated low-pyrogen fetal bovine serum, 2 mM GlutaMAX-1,1% non-essential amino acids, 1% sodium pyruvate, 100 units/ml penicillin G and 100 μg/ml streptomycin (Gibco BRL Life Technologies). Cells will be stimulated with 100 ng/ml rhMIF with or without inhibitor for 20 h at 37° C. with 5% CO2. The supernatants were stored at −20° C. until they were assayed. The levels of inflammatory mediators will be determined using commercial ELISA kits from R&D Systems (Minneapolis, Minn.). […] Cytotoxicity is assessed using the MTT [3-(4,5-dimethylthiazol-2-yl)-2,5-diphenyl tetrazolium bromide assay. […] Interleukin 6 levels in culture supernatants are quantitated by ELISA. […]

| Compound | IC50 [1] | inhibition at 25 µM [2] | inhibition at 25 µM [3] | inhibition at 25 µM [4] |
| --- | --- | --- | --- | --- |
| Cn1c(=O)c(C#N)c(N2CCC(C(=O)c3cccs3)CC2)c2ccccc21 [Compound IV, 1-methyl-2-oxo-4-[4-(thiophen-2-ylcarbonyl)piperidin-1-yl]-1,2-dihydroquinoline-3-carbonitrile] | 100 to 200 µM | 10 to 50% |  |  |
| Cn1c(=O)c(C#N)c(N2CCC(NC(=O)c3cccs3)CC2)c2ccccc21 [Compound VIII, N-[1-(3-cyano-1-methyl-2-oxo-1,2-dihydroquinolin-4-yl)piperidin-4-yl]thiophene-2-carboxamide] | ≤ 10 µM | 10 to 50% |  |  |
| Cn1c(=O)c(C#N)c(N2CC(C(=O)c3cccs3)C2)c2ccccc21 [Compound V] | 10 to 100 µM | > 70% |  |  |
| Cn1c(=O)c(C#N)c(N2CCC(C(=O)O)CC2)c2ccccc21 [Compound X, 1-(3-cyano-1-methyl-2-oxo-1,2-dihydroquinolin-4-yl)piperidine-4-carboxylic acid] | > 200 µM |  |  |  |
| Cn1c(=O)c(C#N)c(N2CCC(C(=O)NCc3ccncc3)CC2)c2ccccc21 [Compound XI, 1-(3-cyano-1-methyl-2-oxo-1,2-dihydroquinolin-4-yl)N-(pyridin-4-ylmethyl)piperidine-4-carboxamide] | > 200 µM |  |  |  |
| Cn1c(=O)c(C#N)c(N2CC(C(=O)NCc3ccncc3)C2)c2ccccc21 [Compound XIX, 1-(3-cyano-1-methyl-2-oxo-1,2-dihydroquinolin-4-yl)-N-(pyridin-4-ylmethyl)azetidine-3-carboxamide] | ≤ 10 µM |  |  |  |
| Cn1c(=O)c(C#N)c(N2CCC(C(=O)Nc3ccn[nH]3)CC2)c2ccccc21 [Compound XV] | ≤ 10 µM |  |  |  |
| Cn1c(=O)c(C#N)c(N2CC(NC(=O)c3cccs3)C2)c2ccccc21 [Compound XXI, N-[1-(3-cyano-1-methyl-2-oxo-1,2-dihydroquinolin-4-yl)azetidin-3-yl]thiophene-2-carboxamide] | 10 to 100 µM | ≤ 10% | 10 to 50% | 10 to 50% |
| Cn1c(=O)c(C#N)c(NC2CN(S(C)(=O)=O)C2)c2ccccc21 [Compound XXVI, 1-methyl-4-(1-(methylsulfonyl)azetidin-3-ylamino)-2-oxo-1,2-dihydroquinoline-3-carbonitrile] | 10 to 100 µM |  |  |  |
| N#Cc1c(N2CCC(C(=O)c3cccs3)CC2)c2ccccc2n(Cc2ccc(F)cc2)c1=O [Compound XXVIII, 1-(4-fluorobenzyl)-2-oxo-4-[4-(thiophen-2-ylcarbonyl)piperidin-1-yl]-1,2-dihydroquinoline-3-carbonitrile] | 100 to 200 µM | 10 to 50% |  |  |
| Cn1c(=O)c(C#N)c(NC2CCN(S(C)(=O)=O)CC2)c2ccccc21 [Compound XXV] | > 200 µM |  |  |  |
| Cn1c(=O)c(C#N)c(N2CCC(C(=O)NCCO)CC2)c2ccccc21 [XIII] | > 200 µM |  |  |  |
| CN(C)C(=O)C1CCN(c2c(C#N)c(=O)n(C)c3ccccc23)CC1 [XII] | > 200 µM |  |  |  |
| Cn1c(=O)c(C#N)c(N2CCC(C(=O)Nc3nccs3)CC2)c2ccccc21 [XIV] | ≤ 10 µM |  |  |  |
| Cn1c(=O)c(C#N)c(NC2CCN(C(=O)c3cccs3)CC2)c2ccccc21 [XVII-1, 1-methyl-2-oxo-4-{[1-(thiophen-2-ylcarbonyl)piperidin-4-yl]amino}-1,2-dihydroquinoline-3-carbonitrile] | ≤ 10 µM | 50 to 70% |  |  |
| Cn1c(=O)c(C#N)c(NC2CN(C(=O)c3cccs3)C2)c2ccccc21 [XXIV, 1-methyl-2-oxo-4-(1-(thiophene-2-carbonyl)azetidin-3-ylamino)-1,2-dihydroquinoline-3-carbonitrile] | ≤ 10 µM | 50 to 70% | > 70% | 10 to 50% |
| N#Cc1c(NC2CCN(C(=O)c3cccs3)CC2)c2ccccc2n(Cc2ccc(F)cc2)c1=O [XXXIII] | ≤ 10 µM | 50 to 70% |  |  |
| N#Cc1c(NC2CN(S(=O)(=O)c3cccs3)C2)c2ccccc2n(Cc2ccc(F)cc2)c1=O [XXXIV, 1-(4-fluorobenzyl)-2-oxo-4-(1-(thiophen-2-ylsulfonyl)azetidin-3-ylamino)-1,2-dihydroquinoline-3-carbonitrile] | > 200 µM |  |  |  |
| N#Cc1c(N2CC(C(=O)c3cccs3)C2)c2ccccc2n(Cc2ccc(F)cc2)c1=O [XXXVIII] | 100 to 200 µM |  |  |  |
| N#Cc1c(NC2CN(C(=O)c3cncnc3)C2)c2ccccc2n(Cc2ccc(F)cc2)c1=O [XXXVII] | 10 to 100 µM |  |  |  |
| N#Cc1c(NC2CN(C(=O)c3cccs3)C2)c2ccccc2n(Cc2ccc(F)cc2)c1=O [XXXVI] | ≤ 10 µM |  | > 70% |  |
| N#Cc1c(NC2CN(C(=O)c3ccncc3)C2)c2ccccc2n(Cc2ccc(F)cc2)c1=O [XXXV] | ≤ 10 µM |  | 10 to 50% |  |
